Test results reported in paper PMC3969223, “Characterization of WZ4003 and HTH-01-015 as selective inhibitors of the LKB1-tumour-suppressor-activated NUAK kinases” (Biochemical Journal, 2013).

How the values were obtained:
[1] = test system: MYPT1 phosphorylation; assay: MYPT1 phosphorylation on detachment, U2OS; assay type: cell-based; conditions: 10 μM, 16 h
Method: Figure 7 NUAK1 inhibition suppresses cell proliferation (A) U2OS cells were incubated with or without 10 μM WZ4003 or 10 μM HTH-01-015 and a cell proliferation assay was carried out over 5 days in triplicate using the CellTiter 96® AQueous Non-Radioactive Cell Proliferation Assay kit (Promega) (as described in the Materials and methods section). U2OS cells in which NUAK1 has been knocked-down using two different shRNA hairpins were used in parallel as controls. The efficiency of the knock down of each shRNA is shown in top panel. SCR, control scrambled shRNA hairpin; shNUAK1 (1), first NUAK1 shRNA hairpin; shNUAK1 (2), second NUAK1 shRNA hairpin. (B) U2OS cells were treated with (+) or without (−) 10 μM WZ4003 or 10 μM HTH-01-015. After 16 h cell media was removed and cells were treated with EDTA-PBS-based cell dissociation buffer supplemented with 10 μM WZ4003, 10 μM HTH-01–015 or DMSO for 20 min. Cell detachment was induced with gentle tapping of the plates followed by gentle centrifugation at 70 g for 3 min. Cells were lysed immediately after removal of the media and immunoblotted for the detection of the indicated antibodies. (C and D) As above, except NUAK1^+/+ and NUAK1^−/− MEFs were used. Similar results were obtained in three separate experiments.

[2] = test system: AMPK; assay: Kinase profiling; assay type: biochemical
Method: (§1) Kinase inhibitor specificity profiling assays were carried out at The International Centre for Protein Kinase Profiling (http://www.kinase-screen.mrc.ac.uk/) against a panel of 140 protein kinases as described previously. Results are presented as a percentage of kinase activity in DMSO control reactions. Protein kinases were assayed in vitro with 0.1 or 1 μM of the inhibitors and the results are presented as an average of triplicate reactions±S.D. or in the form of comparative histograms.

[3] = molecular target: ASK1 (Homo sapiens, UniProt Q99683); assay: Kinase profiling; assay type: biochemical; conditions: 0.1 or 1 μM inhibitor; mean of triplicate
Method: as §1

[4] = molecular target: BTK (Homo sapiens, UniProt Q06187); assay: Kinase profiling; assay type: biochemical; conditions: 0.1 or 1 μM inhibitor; mean of triplicate
Method: as §1

[5] = molecular target: CK2 (Homo sapiens, UniProt P68400); assay: Kinase profiling; assay type: biochemical; conditions: 0.1 or 1 μM inhibitor; mean of triplicate
Method: as §1

[6] = molecular target: DYRK1A (Homo sapiens, UniProt Q13627); assay: Kinase profiling; assay type: biochemical; conditions: 0.1 or 1 μM inhibitor; mean of triplicate
Method: as §1

[7] = molecular target: EPH-B3 (Homo sapiens, UniProt P54753); assay: Kinase profiling; assay type: biochemical; conditions: 0.1 or 1 μM inhibitor; mean of triplicate
Method: as §1

[8] = molecular target: FGF-R1 (Homo sapiens, UniProt P11362); assay: Kinase profiling; assay type: biochemical; conditions: 0.1 or 1 μM inhibitor; mean of triplicate
Method: as §1

[9] = molecular target: GSK3β (Homo sapiens, UniProt P49841); assay: Kinase profiling; assay type: biochemical; conditions: 0.1 or 1 μM inhibitor; mean of triplicate
Method: as §1

[10] = molecular target: HIPK1 (Homo sapiens, UniProt Q86Z02); assay: Kinase profiling; assay type: biochemical; conditions: 0.1 or 1 μM inhibitor; mean of triplicate
Chain of HIPK1 (Q86Z02 whole entry): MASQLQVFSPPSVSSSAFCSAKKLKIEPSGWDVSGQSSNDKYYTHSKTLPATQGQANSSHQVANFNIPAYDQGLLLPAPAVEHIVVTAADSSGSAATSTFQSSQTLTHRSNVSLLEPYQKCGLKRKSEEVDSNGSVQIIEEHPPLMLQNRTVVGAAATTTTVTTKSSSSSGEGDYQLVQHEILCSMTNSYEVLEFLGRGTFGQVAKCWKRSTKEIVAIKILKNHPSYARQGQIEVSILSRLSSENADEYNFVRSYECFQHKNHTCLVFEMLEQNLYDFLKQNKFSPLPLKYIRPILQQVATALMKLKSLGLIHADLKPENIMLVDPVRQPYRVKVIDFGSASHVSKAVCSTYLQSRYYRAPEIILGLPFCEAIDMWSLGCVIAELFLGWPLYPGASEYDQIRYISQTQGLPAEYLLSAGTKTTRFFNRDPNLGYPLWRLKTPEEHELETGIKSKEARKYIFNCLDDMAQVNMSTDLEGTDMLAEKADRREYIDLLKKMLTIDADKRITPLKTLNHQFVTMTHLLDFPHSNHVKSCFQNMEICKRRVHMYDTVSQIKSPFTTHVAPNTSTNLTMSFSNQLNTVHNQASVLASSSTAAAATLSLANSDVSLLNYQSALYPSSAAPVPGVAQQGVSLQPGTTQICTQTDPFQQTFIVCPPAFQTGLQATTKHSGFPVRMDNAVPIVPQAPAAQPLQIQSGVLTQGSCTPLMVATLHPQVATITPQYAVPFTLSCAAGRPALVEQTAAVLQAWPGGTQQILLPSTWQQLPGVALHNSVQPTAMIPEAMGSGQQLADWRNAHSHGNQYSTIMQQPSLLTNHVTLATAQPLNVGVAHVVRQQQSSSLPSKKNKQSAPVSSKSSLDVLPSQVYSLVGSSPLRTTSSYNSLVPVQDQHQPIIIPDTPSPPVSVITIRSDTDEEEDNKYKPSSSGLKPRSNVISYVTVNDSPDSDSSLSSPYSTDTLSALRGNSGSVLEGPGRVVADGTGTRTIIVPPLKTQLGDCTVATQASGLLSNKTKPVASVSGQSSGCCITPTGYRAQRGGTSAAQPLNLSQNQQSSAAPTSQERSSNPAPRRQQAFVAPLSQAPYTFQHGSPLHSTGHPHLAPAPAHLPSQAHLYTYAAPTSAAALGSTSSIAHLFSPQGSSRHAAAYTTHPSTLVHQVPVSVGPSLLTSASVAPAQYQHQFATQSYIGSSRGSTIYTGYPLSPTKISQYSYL
Method: as §1

[11] = molecular target: HIPK3 (Homo sapiens, UniProt Q9H422); assay: Kinase profiling; assay type: biochemical; conditions: 0.1 or 1 μM inhibitor; mean of triplicate
Chain of HIPK3 (Q9H422 whole entry): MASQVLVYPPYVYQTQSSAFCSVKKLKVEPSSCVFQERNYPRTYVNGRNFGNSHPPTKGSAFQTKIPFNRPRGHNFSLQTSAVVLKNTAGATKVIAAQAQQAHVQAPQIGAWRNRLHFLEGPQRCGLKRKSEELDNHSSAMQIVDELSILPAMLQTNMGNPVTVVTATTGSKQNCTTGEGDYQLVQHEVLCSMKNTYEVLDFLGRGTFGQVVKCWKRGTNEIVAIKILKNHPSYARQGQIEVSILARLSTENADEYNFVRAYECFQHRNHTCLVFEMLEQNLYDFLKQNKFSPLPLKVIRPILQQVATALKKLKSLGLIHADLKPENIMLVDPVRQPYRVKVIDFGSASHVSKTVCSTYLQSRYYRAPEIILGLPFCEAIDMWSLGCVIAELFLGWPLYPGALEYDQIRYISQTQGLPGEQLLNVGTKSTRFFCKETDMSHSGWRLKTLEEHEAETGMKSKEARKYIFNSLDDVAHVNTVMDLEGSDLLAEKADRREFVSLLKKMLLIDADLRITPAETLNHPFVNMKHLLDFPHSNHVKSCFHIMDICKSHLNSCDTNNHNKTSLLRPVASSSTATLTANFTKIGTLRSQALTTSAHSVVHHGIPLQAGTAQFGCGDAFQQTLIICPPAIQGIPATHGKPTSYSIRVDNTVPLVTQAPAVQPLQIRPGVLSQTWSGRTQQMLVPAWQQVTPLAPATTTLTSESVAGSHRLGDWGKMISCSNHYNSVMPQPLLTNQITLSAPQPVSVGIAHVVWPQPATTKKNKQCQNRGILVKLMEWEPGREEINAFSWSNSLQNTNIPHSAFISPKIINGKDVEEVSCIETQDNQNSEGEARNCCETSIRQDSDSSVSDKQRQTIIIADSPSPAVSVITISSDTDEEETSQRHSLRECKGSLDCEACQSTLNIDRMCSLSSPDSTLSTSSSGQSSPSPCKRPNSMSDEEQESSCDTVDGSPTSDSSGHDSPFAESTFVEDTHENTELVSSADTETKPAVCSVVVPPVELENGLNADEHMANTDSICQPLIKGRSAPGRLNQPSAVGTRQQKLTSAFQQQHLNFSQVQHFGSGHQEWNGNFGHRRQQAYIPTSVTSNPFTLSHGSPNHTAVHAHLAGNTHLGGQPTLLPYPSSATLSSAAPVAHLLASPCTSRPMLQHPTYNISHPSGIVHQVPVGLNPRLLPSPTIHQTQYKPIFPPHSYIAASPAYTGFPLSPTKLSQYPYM
Method: as §1

[12] = molecular target: IKKε (Homo sapiens, UniProt Q14164); assay: Kinase profiling; assay type: biochemical; conditions: 0.1 or 1 μM inhibitor; mean of triplicate
Method: as §1

[13] = molecular target: IRAK4 (Homo sapiens, UniProt Q9NWZ3); assay: Kinase profiling; assay type: biochemical; conditions: 0.1 or 1 μM inhibitor; mean of triplicate
Method: as §1

[14] = molecular target: LKB1 (Homo sapiens, UniProt Q15831); assay: Kinase profiling; assay type: biochemical; conditions: 0.1 or 1 μM inhibitor; mean of triplicate
Method: as §1

[15] = molecular target: MAP4K3 (Homo sapiens, UniProt Q8IVH8); assay: Kinase profiling; assay type: biochemical; conditions: 0.1 or 1 μM inhibitor; mean of triplicate
Method: as §1

[16] = molecular target: MAPKAP-K3 (Homo sapiens, UniProt Q16644); assay: Kinase profiling; assay type: biochemical; conditions: 0.1 or 1 μM inhibitor; mean of triplicate
Method: as §1

[17] = molecular target: MARK1 (Homo sapiens, UniProt Q9P0L2); assay: Kinase profiling; assay type: biochemical
Method: as §1

[18] = molecular target: MARK3 (Homo sapiens, UniProt P27448); assay: Kinase profiling; assay type: biochemical
Method: as §1

[19] = molecular target: MINK1 (Homo sapiens, UniProt Q8N4C8); assay: Kinase profiling; assay type: biochemical; conditions: 0.1 or 1 μM inhibitor; mean of triplicate
Chain of MINK1 (Q8N4C8 whole entry): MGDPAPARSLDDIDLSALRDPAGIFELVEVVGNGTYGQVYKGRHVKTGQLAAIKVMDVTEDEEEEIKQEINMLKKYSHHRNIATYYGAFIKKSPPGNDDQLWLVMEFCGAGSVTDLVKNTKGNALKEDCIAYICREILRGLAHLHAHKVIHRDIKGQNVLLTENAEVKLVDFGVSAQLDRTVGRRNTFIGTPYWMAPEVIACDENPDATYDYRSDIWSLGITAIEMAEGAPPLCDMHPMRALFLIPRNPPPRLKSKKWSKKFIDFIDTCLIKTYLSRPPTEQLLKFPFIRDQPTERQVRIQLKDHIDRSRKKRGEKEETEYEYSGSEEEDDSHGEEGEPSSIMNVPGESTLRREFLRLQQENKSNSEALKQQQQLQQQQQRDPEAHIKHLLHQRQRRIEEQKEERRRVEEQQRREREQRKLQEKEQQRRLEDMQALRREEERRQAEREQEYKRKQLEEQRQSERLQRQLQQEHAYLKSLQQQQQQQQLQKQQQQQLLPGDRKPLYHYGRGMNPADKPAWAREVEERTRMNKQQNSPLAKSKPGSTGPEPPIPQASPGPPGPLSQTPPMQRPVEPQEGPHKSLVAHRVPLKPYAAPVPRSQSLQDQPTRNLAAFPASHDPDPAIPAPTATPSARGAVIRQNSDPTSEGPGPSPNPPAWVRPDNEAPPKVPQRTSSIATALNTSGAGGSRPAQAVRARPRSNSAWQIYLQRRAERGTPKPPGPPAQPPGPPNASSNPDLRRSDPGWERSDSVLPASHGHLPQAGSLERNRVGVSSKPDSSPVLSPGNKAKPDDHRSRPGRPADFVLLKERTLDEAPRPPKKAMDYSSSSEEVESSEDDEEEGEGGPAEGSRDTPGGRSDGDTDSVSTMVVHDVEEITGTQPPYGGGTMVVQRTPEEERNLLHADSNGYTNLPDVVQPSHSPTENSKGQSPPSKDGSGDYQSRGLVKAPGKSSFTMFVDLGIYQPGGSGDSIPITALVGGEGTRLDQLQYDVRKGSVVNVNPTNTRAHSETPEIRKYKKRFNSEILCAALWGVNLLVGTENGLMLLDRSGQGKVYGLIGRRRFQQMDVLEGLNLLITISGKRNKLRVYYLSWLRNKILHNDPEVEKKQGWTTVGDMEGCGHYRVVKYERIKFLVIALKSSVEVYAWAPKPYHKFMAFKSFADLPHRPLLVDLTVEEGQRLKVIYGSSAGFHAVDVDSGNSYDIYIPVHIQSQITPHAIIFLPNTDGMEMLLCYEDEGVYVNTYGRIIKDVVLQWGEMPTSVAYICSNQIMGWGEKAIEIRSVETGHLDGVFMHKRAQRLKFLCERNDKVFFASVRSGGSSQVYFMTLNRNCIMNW
Method: as §1

[20] = molecular target: MKK1 (Homo sapiens, UniProt Q02750); assay: Kinase profiling; assay type: biochemical; conditions: 0.1 or 1 μM inhibitor; mean of triplicate
Method: as §1

[21] = molecular target: MLK1 (Homo sapiens, UniProt P80192); assay: Kinase profiling; assay type: biochemical; conditions: 0.1 or 1 μM inhibitor; mean of triplicate
Method: as §1

[22] = molecular target: NEK6 (Homo sapiens, UniProt Q9HC98); assay: Kinase profiling; assay type: biochemical; conditions: 0.1 or 1 μM inhibitor; mean of triplicate
Method: as §1

[23] = molecular target: PAK2 (Homo sapiens, UniProt Q13177); assay: Kinase profiling; assay type: biochemical; conditions: 0.1 or 1 μM inhibitor; mean of triplicate
Method: as §1

[24] = molecular target: PKBα (Homo sapiens, UniProt P31749); assay: Kinase profiling; assay type: biochemical; conditions: 0.1 or 1 μM inhibitor; mean of triplicate
Method: as §1

[25] = molecular target: PKBβ (Homo sapiens, UniProt P31751); assay: Kinase profiling; assay type: biochemical; conditions: 0.1 or 1 μM inhibitor; mean of triplicate
Method: as §1

[26] = molecular target: PKCζ (Homo sapiens, UniProt Q05513); assay: Kinase profiling; assay type: biochemical; conditions: 0.1 or 1 μM inhibitor; mean of triplicate
Method: as §1

[27] = molecular target: PRAK (Homo sapiens, UniProt Q8IW41); assay: Kinase profiling; assay type: biochemical; conditions: 0.1 or 1 μM inhibitor; mean of triplicate
Method: as §1

[28] = molecular target: ROCK 2 (Homo sapiens, UniProt O75116); assay: Kinase profiling; assay type: biochemical; conditions: 0.1 or 1 μM inhibitor; mean of triplicate
Chain of ROCK 2 (O75116 whole entry): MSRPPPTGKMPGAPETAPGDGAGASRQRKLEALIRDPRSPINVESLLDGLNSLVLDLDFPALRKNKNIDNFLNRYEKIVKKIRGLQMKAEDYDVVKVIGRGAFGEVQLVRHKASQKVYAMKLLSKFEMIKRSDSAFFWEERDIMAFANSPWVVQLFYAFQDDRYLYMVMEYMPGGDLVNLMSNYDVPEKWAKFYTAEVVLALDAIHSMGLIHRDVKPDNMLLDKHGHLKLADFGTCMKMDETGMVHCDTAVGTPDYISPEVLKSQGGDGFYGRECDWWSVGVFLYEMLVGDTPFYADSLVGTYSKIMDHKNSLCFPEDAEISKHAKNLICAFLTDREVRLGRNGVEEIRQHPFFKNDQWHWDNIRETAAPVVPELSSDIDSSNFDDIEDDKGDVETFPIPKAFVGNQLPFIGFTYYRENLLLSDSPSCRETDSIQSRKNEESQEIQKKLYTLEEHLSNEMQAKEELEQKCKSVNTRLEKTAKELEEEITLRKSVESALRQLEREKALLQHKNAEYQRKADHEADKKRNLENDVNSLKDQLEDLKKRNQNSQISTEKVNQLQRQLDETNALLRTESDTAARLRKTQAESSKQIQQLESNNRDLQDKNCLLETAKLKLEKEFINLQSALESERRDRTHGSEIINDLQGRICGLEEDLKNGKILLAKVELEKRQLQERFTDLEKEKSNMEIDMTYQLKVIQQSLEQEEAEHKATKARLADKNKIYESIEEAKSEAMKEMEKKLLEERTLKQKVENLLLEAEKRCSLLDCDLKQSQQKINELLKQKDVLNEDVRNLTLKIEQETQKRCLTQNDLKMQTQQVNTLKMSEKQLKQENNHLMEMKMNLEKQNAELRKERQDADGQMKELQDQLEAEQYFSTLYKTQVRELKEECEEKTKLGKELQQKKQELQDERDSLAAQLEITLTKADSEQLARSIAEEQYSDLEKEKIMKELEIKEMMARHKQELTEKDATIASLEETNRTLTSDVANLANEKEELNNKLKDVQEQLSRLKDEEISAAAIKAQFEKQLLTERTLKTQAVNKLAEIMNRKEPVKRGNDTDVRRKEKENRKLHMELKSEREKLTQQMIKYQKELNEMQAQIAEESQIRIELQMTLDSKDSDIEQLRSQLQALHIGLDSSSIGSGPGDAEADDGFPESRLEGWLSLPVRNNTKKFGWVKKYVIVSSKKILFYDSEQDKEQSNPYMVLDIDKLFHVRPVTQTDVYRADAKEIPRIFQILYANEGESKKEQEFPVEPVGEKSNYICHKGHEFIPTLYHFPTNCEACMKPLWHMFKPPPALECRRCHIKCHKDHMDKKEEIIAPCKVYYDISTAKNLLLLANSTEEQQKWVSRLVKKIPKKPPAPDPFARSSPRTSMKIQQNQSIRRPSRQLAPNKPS
Method: as §1

[29] = molecular target: Src (Homo sapiens, UniProt P12931); assay: Kinase profiling; assay type: biochemical; conditions: 0.1 or 1 μM inhibitor; mean of triplicate
Method: as §1

[30] = molecular target: TAO1 (Homo sapiens, UniProt Q7L7X3); assay: Kinase profiling; assay type: biochemical; conditions: 0.1 or 1 μM inhibitor; mean of triplicate
Method: as §1

[31] = molecular target: TIE2 (Homo sapiens, UniProt Q02763); assay: Kinase profiling; assay type: biochemical; conditions: 0.1 or 1 μM inhibitor; mean of triplicate
Method: as §1

[32] = 0.1 or 1 μM inhibitor, mean of triplicate

Which results are given for `Cc1nc(Nc2cnn(C3CCNCC3)c2)nc2c1N(C)C(=O)c1cc3ccccc3cc1N2C` [HTH-01-015]?
Suppression of MYPT1 phosphorylation in U2OS cells (in words) [1]: to the same extent as shRNA-mediated NUAK1 knockdown; AMPK activity, percentage of DMSO control [2, 32]: 127 percentage; ASK1 activity, percentage of DMSO control [3]: 105 percentage; BTK activity, percentage of DMSO control [4]: 109 percentage; CK2 activity, percentage of DMSO control [5]: 120 percentage; DYRK1A activity, percentage of DMSO control [6]: 89 percentage; EPH-B3 activity, percentage of DMSO control [7]: 120 percentage; FGF-R1 activity, percentage of DMSO control [8]: 105 percentage; GSK3β activity, percentage of DMSO control [9]: 119 percentage; HIPK1 activity, percentage of DMSO control [10]: 107 percentage; HIPK3 activity, percentage of DMSO control [11]: 96 percentage; IKKε activity, percentage of DMSO control [12]: 85 percentage; IRAK4 activity, percentage of DMSO control [13]: 103 percentage; LKB1 activity, percentage of DMSO control [14]: 98 percentage; MAP4K3 activity, percentage of DMSO control [15]: 127 percentage; MAPKAP-K3 activity, percentage of DMSO control [16]: 96 percentage; MARK1 activity, percentage of DMSO control [17, 32]: 106 percentage; MARK3 activity, percentage of DMSO control [18, 32]: 102 percentage; MINK1 activity, percentage of DMSO control [19]: 101 percentage; MKK1 activity, percentage of DMSO control [20]: 113 percentage; MLK1 activity, percentage of DMSO control [21]: 102 percentage; NEK6 activity, percentage of DMSO control [22]: 99 percentage; PAK2 activity, percentage of DMSO control [23]: 125 percentage; PKBα activity, percentage of DMSO control [24]: 87 percentage; PKBβ activity, percentage of DMSO control [25]: 104 percentage; PKCζ activity, percentage of DMSO control [26]: 98 percentage; PRAK activity, percentage of DMSO control [27]: 105 percentage; ROCK 2 activity, percentage of DMSO control [28]: 110 percentage; Src activity, percentage of DMSO control [29]: 76 percentage; TAO1 activity, percentage of DMSO control [30]: 123 percentage; TIE2 activity, percentage of DMSO control [31]: 84 percentage

With `CCC(=O)Nc1cccc(Oc2nc(Nc3ccc(N4CCN(C)CC4)cc3OC)ncc2Cl)c1` [WZ4003] as the compound, how does the “Suppression of MYPT1 phosphorylation in U2OS cells (in words)” value [1] read?
Its value is “to the same extent as shRNA-mediated NUAK1 knockdown”.

And the “ASK1 activity, percentage of DMSO control” value [3]?
The value was 107 percentage.

What about the “BTK activity, percentage of DMSO control” value [4] of the same compound?
The value was 114 percentage.

What about the “CK2 activity, percentage of DMSO control” value [5] of the same compound?
The value was 76 percentage.

And the “DYRK1A activity, percentage of DMSO control” value [6]?
The value was 102 percentage.

What about the “EPH-B3 activity, percentage of DMSO control” value [7] of the same compound?
The value was 113 percentage.

And the “FGF-R1 activity, percentage of DMSO control” value [8]?
Its value is 66 percentage.

And the “GSK3β activity, percentage of DMSO control” value [9]?
Its value is 88 percentage.

What about the “HIPK1 activity, percentage of DMSO control” value [10] of the same compound?
The value was 103 percentage.

And the “HIPK3 activity, percentage of DMSO control” value [11]?
The value was 91 percentage.

And the “IKKε activity, percentage of DMSO control” value [12]?
Its value is 104 percentage.

And the “IRAK4 activity, percentage of DMSO control” value [13]?
The value was 92 percentage.

What about the “LKB1 activity, percentage of DMSO control” value [14] of the same compound?
Its value is 87 percentage.

What about the “MAP4K3 activity, percentage of DMSO control” value [15] of the same compound?
The value was 111 percentage.

What about the “MAPKAP-K3 activity, percentage of DMSO control” value [16] of the same compound?
The value was 91 percentage.

And the “MINK1 activity, percentage of DMSO control” value [19]?
Its value is 120 percentage.

And the “MKK1 activity, percentage of DMSO control” value [20]?
Its value is 98 percentage.

What about the “MLK1 activity, percentage of DMSO control” value [21] of the same compound?
Its value is 69 percentage.

And the “NEK6 activity, percentage of DMSO control” value [22]?
Its value is 79 percentage.

And the “PAK2 activity, percentage of DMSO control” value [23]?
Its value is 92 percentage.

What about the “PKBα activity, percentage of DMSO control” value [24] of the same compound?
Its value is 98 percentage.

And the “PKBβ activity, percentage of DMSO control” value [25]?
The value was 114 percentage.

What about the “PKCζ activity, percentage of DMSO control” value [26] of the same compound?
Its value is 86 percentage.

What about the “PRAK activity, percentage of DMSO control” value [27] of the same compound?
The value was 94 percentage.

What about the “ROCK 2 activity, percentage of DMSO control” value [28] of the same compound?
Its value is 80 percentage.

What about the “Src activity, percentage of DMSO control” value [29] of the same compound?
Its value is 109 percentage.

What about the “TAO1 activity, percentage of DMSO control” value [30] of the same compound?
Its value is 101 percentage.

What about the “TIE2 activity, percentage of DMSO control” value [31] of the same compound?
Its value is 94 percentage.

Which “Inhibition of AMPK in profiling (in words)” value ([2]; 1 μM) does the source give for `CN1C(=O)c2ccccc2N(C)c2nc(Nc3cnn(C4CCNCC4)c3)ncc21` [XMD-17-51] here?
Its value is “inhibited”.

And the “Inhibition of MARK1 in profiling (in words)” value ([17]; 1 μM)?
Its value is “inhibited”.

And the “Inhibition of MARK3 in profiling (in words)” value ([18]; 1 μM)?
The value was “inhibited”.
